From ChEMBL document CHEMBL5137043, “trans, trans-2-C-Aryl-3,4-dihydroxypyrrolidines as potent and selective β-glucosidase inhibitors: Pharmacological chaperones for Gaucher disease” (Eur J Med Chem, 2022)
pIC50: −log10 of the molar value.

Biological target: T1, Lysosomal acid glucosylceramidase (Homo sapiens, UniProt P04062)
T1 sequence (P04062 whole entry): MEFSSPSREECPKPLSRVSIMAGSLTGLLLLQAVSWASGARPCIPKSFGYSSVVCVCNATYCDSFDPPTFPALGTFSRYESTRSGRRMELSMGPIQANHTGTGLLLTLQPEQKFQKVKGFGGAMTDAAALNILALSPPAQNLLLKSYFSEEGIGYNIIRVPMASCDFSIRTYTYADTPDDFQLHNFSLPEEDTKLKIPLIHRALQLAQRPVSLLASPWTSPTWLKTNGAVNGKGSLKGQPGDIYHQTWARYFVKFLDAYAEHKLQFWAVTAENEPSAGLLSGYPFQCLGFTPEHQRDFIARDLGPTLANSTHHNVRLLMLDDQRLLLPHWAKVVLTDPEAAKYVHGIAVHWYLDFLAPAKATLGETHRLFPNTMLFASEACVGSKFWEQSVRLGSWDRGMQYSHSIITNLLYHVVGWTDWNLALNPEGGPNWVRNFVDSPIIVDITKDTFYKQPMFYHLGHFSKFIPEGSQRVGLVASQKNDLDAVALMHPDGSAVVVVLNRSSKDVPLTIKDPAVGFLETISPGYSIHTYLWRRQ
Assay: Inhibition of human GCase assessed as reduction of 4-methylumbelliferone liberation using 4-methylumbelliferyl-beta-glucopyranoside as substrate preincubated with enzyme for 45 mins followed by substrate addition and measured after 30 mins by fluorescence spectrophotometry

| Compound | pIC50 |
| --- | --- |
| CCCCCCCCCC[C@H]1N[C@H](CO)[C@@H](O)[C@@H]1O | 5.72 |
| CCCCCC[C@H]1N[C@H](CO)[C@@H](O)[C@@H]1O | 4.52 |
| CCCCCCCCCCCCC[C@H]1N[C@H](CO)[C@@H](O)[C@@H]1O | 6.11 |
| CCCCCCC[C@H]1N[C@H](CO)[C@@H](O)[C@@H]1O | 4.42 |
| CCCCCCCC[C@H]1N[C@H](CO)[C@@H](O)[C@@H]1O | 5.21 |
| CCCCCCCCC[C@H]1N[C@H](CO)[C@@H](O)[C@@H]1O | 5.48 |
| CCCCCCCCCCC[C@H]1N[C@H](CO)[C@@H](O)[C@@H]1O | 5.64 |
| CCCCC[C@H]1N[C@H](CO)[C@@H](O)[C@@H]1O | 4.47 |
